Among the data in patent publication US9783527B2, “Indazole ureas and method of use” (AbbVie Inc., priority 2014, dated 2017) are IC50 values, retold here.

In one assay the target is human Nav1.8 (Homo sapiens (Human), UniProt Q9Y5Y9). Briefly: FRET-based membrane potential assay, recombinant human sodium channel Nav1.8. The format is cell-based. The conditions noted are these: HEK293 cells stably expressing recombinant human Nav1.8; depolarization with veratridine (EC80) + scorpion venom. The procedure, abridged: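 HEK293 cells stably expressing Nav1.8 were loaded with CC2-DMPE/DiSBAC2(3) FRET voltage dyes. Compounds were added 3 min before depolarization with EC80 veratridine plus scorpion venom. The F440-480/F565-625 ratio was read on FLIPR; IC50 came from four-parameter Hill fits.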

In a further assay the target is human Nav1.7 (Homo sapiens (Human), UniProt Q15858). Briefly: FRET-based membrane potential assay, recombinant human sodium channel Nav1.7. The format is cell-based. The note with it: HEK293 cells stably expressing recombinant human Nav1.7; depolarization with veratridine (EC80) + scorpion venom. The procedure, abridged:
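IC50 derived by four-parameter Hill fit of percent inhibition of depolarization, measured as peak F440-480/F565-625 ratio over baseline. Stable human Nav1.7 HEK293 cells, dye-loaded with CC2-DMPE and DiSBAC2(3)/VABSC-1 at room temperature, received compound 3 min ahead of veratridine (EC80) plus scorpion venom.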

Each structure is given as a SMILES string.

Chain of human Nav1.7 (Q15858 whole entry): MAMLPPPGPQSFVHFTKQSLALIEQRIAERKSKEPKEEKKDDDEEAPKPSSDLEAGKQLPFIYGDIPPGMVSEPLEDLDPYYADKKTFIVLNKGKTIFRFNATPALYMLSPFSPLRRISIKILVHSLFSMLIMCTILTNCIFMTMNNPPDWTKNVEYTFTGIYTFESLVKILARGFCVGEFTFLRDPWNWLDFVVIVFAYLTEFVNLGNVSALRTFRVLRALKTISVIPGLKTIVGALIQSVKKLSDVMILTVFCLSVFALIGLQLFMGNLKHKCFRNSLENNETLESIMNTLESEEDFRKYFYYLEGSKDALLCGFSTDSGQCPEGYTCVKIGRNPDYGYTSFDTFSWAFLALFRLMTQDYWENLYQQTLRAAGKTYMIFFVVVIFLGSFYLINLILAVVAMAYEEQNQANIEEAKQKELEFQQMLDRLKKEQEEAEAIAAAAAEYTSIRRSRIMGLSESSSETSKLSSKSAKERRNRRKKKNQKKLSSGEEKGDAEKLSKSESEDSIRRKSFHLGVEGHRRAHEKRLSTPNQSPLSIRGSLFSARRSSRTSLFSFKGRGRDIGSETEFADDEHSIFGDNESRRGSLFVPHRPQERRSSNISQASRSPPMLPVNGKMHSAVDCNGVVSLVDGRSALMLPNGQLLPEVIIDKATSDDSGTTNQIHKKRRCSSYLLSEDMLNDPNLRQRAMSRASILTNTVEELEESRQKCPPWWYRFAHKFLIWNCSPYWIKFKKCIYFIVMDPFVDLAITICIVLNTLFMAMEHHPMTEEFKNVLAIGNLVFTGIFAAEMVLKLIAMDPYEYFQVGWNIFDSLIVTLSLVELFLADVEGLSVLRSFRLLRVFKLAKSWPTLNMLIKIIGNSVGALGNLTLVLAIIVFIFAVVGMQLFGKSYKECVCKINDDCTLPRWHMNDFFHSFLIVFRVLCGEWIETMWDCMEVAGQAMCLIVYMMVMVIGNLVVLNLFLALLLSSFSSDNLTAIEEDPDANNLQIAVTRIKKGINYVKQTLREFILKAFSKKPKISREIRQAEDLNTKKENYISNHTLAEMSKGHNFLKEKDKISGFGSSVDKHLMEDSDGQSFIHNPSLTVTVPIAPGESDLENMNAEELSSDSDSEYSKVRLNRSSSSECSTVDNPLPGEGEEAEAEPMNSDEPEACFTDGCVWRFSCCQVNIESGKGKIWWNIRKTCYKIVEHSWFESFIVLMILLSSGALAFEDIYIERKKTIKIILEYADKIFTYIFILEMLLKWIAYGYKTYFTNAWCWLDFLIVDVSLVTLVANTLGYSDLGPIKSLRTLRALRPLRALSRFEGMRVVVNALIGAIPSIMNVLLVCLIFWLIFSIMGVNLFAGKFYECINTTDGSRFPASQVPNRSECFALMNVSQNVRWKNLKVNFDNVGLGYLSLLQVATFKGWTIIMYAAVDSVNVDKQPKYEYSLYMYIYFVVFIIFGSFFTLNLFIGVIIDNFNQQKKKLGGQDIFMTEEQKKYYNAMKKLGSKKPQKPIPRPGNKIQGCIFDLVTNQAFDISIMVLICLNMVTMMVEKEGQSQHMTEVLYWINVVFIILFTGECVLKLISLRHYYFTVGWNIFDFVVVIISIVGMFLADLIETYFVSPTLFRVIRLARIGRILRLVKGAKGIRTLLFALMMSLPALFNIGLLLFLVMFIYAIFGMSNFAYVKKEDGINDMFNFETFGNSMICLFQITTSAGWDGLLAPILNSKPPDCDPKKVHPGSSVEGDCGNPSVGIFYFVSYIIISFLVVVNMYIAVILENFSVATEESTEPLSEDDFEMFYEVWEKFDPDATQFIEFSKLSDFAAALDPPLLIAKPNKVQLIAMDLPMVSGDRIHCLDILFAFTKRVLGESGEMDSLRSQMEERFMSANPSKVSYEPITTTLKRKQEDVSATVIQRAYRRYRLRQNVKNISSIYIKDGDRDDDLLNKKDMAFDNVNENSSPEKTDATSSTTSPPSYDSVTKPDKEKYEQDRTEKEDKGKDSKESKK
Chain of human Nav1.8 (Q9Y5Y9 whole entry): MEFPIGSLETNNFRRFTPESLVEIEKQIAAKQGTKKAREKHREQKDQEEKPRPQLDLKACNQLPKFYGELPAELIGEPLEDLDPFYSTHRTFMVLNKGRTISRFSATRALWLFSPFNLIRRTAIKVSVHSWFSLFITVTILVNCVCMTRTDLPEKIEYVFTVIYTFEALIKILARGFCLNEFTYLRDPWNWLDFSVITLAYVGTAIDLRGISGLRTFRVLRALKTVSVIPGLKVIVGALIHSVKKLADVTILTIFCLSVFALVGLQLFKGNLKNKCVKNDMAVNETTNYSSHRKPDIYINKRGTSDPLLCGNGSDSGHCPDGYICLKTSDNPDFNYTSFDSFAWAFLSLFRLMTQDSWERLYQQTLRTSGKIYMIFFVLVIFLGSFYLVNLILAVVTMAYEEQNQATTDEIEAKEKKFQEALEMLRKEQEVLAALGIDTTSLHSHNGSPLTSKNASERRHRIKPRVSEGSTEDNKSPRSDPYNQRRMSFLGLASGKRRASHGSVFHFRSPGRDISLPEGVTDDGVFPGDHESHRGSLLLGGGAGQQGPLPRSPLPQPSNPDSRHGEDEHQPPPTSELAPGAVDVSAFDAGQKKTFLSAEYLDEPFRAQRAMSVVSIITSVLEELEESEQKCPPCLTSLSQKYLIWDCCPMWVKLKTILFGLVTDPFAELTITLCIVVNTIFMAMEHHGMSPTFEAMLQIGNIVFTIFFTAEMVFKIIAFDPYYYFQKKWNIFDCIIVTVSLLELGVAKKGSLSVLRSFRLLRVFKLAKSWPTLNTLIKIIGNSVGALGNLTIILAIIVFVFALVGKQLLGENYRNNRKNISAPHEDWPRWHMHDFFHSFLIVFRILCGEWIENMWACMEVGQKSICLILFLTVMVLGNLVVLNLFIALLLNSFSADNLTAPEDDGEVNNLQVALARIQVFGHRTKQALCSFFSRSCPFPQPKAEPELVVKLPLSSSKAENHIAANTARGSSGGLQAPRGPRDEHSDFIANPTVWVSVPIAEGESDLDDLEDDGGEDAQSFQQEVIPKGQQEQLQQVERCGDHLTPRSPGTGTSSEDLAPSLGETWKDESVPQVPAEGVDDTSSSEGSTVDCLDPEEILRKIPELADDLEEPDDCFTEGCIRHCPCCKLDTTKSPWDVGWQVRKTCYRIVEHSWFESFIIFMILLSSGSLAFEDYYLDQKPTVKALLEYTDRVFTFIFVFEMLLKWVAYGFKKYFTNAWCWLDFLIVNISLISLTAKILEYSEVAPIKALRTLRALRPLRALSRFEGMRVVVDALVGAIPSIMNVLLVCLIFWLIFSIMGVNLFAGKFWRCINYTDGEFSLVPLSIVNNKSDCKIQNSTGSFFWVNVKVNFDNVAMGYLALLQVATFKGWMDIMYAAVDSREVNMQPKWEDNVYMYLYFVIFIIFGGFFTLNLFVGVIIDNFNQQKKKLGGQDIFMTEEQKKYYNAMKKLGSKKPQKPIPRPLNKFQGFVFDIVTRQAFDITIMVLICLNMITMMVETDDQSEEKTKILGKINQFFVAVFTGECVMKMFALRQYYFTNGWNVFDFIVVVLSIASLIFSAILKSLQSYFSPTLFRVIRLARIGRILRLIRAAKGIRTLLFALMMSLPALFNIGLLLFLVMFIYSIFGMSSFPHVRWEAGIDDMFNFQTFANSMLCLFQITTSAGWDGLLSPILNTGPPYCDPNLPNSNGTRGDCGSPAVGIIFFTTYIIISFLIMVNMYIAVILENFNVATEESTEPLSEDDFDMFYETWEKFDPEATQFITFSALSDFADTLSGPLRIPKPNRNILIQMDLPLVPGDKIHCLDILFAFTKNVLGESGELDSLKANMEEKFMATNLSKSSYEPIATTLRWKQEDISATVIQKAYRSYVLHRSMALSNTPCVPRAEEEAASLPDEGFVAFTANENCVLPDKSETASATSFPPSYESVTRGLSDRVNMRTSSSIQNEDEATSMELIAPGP

As to `Cc1noc(C(C)N2CCN(c3cccc4c3cnn4-c3ccccc3F)C2=O)n1` (racemic) [Example 46, 1-[1-(2-fluorophenyl)-1H-indazol-4-yl]-3-[1-(3-methyl-1,2,4-oxadiazol-5-yl)ethyl]imidazolidin-2-one], the half-inhibitory concentration (IC50) (in general, the concentration needed to halve the response being measured) on human Nav1.8 was 8.73 µM; at human Nav1.7, 1.87 µM.
The matching figures for `C[C@H]1CCCN1C(=O)CN1CCN(c2cccc3c2cnn3-c2ccccc2F)C1=O` [Example 15, 1-[1-(2-fluorophenyl)-1H-indazol-4-yl]-3-{2-[(2S)-2-methylpyrrolidin-1-yl]-2-oxoethyl}imidazolidin-2-one]: 1.81 µM and 0.625 µM.
On the same counts, the results for `Cc1noc(C)c1CN1CCN(c2cccc3c2cnn3-c2ccccc2F)C1=O` [Example 27, 1-[(3,5-dimethyl-1,2-oxazol-4-yl)methyl]-3-[1-(2-fluorophenyl)-1H-indazol-4-yl]imidazolidin-2-one] are 1.04 µM and 0.546 µM.
On the same counts, the results for `O=C(CN1CCN(c2cccc3c2cnn3-c2ccccc2F)C1=O)N[C@@H]1CCOC1` [Example 55, 2-{3-[1-(2-fluorophenyl)-1H-indazol-4-yl]-2-oxoimidazolidin-1-yl}-N-[(3R)-tetrahydrofuran-3-yl]acetamide] are 5.28 µM and 2.24 µM.
